pIC50: −log10 of the molar value.
Legend:
Prolyl endopeptidase FAP = target: T1, Prolyl endopeptidase FAP (Homo sapiens, UniProt Q12884); test: Inhibition of recombinant human FAP extracted from S2 cells using fluorogenic FAP as specific substrate measured after 10 mins incubation by 7-amino-4-methylcoumarin in assay
T1 sequence (Q12884 whole entry): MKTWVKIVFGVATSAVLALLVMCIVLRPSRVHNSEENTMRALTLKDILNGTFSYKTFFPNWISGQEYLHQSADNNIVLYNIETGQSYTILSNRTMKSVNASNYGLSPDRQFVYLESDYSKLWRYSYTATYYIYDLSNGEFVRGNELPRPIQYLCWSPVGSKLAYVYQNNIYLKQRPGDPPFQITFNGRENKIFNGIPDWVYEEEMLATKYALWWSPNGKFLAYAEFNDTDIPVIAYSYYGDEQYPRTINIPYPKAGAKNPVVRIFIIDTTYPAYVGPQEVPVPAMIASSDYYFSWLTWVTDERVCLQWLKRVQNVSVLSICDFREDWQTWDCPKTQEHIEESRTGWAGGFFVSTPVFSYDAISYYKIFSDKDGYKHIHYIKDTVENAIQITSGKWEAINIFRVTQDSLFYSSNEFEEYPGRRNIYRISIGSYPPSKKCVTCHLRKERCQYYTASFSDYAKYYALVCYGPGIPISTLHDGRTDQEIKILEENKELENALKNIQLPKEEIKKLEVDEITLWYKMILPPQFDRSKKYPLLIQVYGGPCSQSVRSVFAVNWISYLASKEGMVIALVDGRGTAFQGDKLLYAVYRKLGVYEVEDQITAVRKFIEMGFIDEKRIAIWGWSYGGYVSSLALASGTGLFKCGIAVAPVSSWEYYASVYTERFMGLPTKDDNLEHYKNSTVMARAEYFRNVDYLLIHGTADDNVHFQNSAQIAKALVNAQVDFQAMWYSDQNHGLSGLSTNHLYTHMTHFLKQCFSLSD

clinical = conditions: human

Row | Structure (SMILES) | pIC50 (Prolyl endopeptidase FAP) | Cmax (clinical)
1 | Nc1ncnc2c1ncn2CCOCP(=O)(O)O [ADEFOVIR] | < 4.00 | –
2 | Cc1cc2ncc(C(=O)NCC(C)(C)NCC(=O)N3CCC[C@H]3C#N)cn2n1 [ANAGLIPTIN] | – | 1200 nM
3 | CC#CCn1c(N2CCC[C@@H](N)C2)nc2c1c(=O)n(Cc1nc(C)c3ccccc3n1)c(=O)n2C [LINAGLIPTIN] | – | 12 nM
4 | C[C@H](Cn1cnc2c(N)ncnc21)OCP(=O)(O)O [TENOFOVIR ANHYDROUS] | < 4.00 | –

Source: ChEMBL document CHEMBL6087393, “Sensitive quantification of fibroblast activation protein and high-throughput screening for inhibition by FDA-approved compounds” (Eur J Med Chem, 2024)
